Measured values taken from patent publication US20260137671A1, “PDK4 as a Cell-Aging Intervention Target and Its Use in Chemotherapy and Anticancer” (Shanghai Institute of Nutrition and Health, Chinese Academy …, priority 2022, published 2026).
Each block holds one molecule with its values, some of them ahead of it.

Key:
HTR2B = target: T1, HTR2B (Homo sapiens, UniProt P41595); assay: Malignant phenotype of HTR2B-transduced PCa lines with HTR2B antagonist; format: cell-based; conditions: PCa lines PC3, DU145, M12; antagonist applied under culture conditions
T1 construct: expressed in transfected cells; host or cells: PCa cell lines (PC3, DU145, M12)
T1 sequence (P41595 whole entry): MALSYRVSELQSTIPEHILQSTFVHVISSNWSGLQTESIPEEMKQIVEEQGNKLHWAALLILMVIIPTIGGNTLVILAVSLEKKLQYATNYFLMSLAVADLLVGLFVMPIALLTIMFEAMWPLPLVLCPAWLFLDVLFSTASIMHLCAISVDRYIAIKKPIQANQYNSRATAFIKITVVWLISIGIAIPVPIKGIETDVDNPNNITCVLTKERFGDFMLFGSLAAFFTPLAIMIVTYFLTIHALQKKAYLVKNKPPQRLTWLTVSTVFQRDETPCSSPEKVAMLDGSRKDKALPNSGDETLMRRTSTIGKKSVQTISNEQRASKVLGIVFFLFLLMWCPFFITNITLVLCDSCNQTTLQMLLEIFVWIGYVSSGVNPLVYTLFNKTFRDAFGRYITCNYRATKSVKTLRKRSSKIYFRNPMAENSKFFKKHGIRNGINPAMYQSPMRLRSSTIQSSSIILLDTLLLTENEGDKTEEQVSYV
Excerpt: FIG. 59. Left, appraisal of the proliferation capacity of PCa lines under different conditions. As the experimental group, human HTR2B was transduced into each PCa cell line, and LY 266097 was used in the culture medium as a control for drug treatment. Middle, measurement of the migration ability of PCa lines under different conditions, with cells treated similarly as described above. Right, measurement of the migration ability of PCa lines under different conditions, with cells treated similarly as described above.
(§1) After PSC27 cells were cultured in DMEM+0.5% FBS medium for 3 days, then the cell population was washed thoroughly with 1×PBS. After a simple centrifugation, the supernatant was collected as conditioned medium, stored at −80° C. or used directly. Prostate epithelial cells are subjected to in vitro experiments during continuous culture in this conditioned medium for 3 days. For chemotherapy resistance, epithelial cell lines were cultured either in low-serum DMEM (0.5% FBS) (referred to as “DMEM”) or in conditioned medium. Simultaneously, mitoxantrone (MIT) was used to treat cells for 1 to 3 days at concentrations close to the IC50 values for each cell line, followed by observation under a bright-field microscope.
More importantly, the transduction of HTR2B enhanced resistance of PCa cells to mitoxantrone (MIT). […]

[1] = system: cancer cells in tumors (PC3/PSC27 xenografts); assay: DNA damage and apoptosis in tumors by IHC (γ-H2AX, cleaved caspase 3); format: in vivo, SCID mice
Excerpt: FIG. 69. Statistical evaluating values of DNA-damaged cells and apoptotic cells in analyzed tumor specimens, represented as a percentage of cells positively stained by IHC with antibodies against γ-H2AX or caspase 3 (cleaved).
FIG. 70. Representative IHC images of caspase 3 (cleaved) in tumors at the end of therapeutic regimens. Biopsies of placebo-treated animals served as negative controls for drug-treated mice. Scale bar, 100 μm.
Considering the primary in vivo expressive results with MIT and/or PDK4-IN treatment, the inventors next asked how pharmacologically targeting PDK4 could enhance the therapeutic response of tumors. To disclose the possible mechanism(s), the inventors chose to dissect tumors from animals 7 days after initiation of treatment, a timepoint right before the development of resistant colonies.

[2] = system: PC3 cells xenografted together with PSC27 cells; assay: PC3/PSC27 xenograft, tumor end volume after chemotherapy and/or PDK4-IN; format: in vivo, SCID mice; conditions: MIT alone, 0.2 mg/kg i.p., first day of weeks 3, 5, 7; end of 8-week regimen
Description: All experimental mouse experiments were carried out in strict accordance with the relevant regulations of the Institutional Animal Care and Use Committee (IACUC), Shanghai Institutes for Biological Sciences, Chinese Academy of Sciences. Immuno-deficient mice ICR SCID mice (body weight about 25 g) aged about 6 weeks were used for animal experiments related to the present disclosure. Stromal cells PSC27 and epithelial cells were mixed at a ratio of 1:4, and each graft contained 1.25×10^6 cells for tissue remodeling. The xenograft tumors were implanted into mice by subcutaneous transplantation, and the animals were euthanized 8 weeks after the end of the transplantation surgery. […] For pre-clinical chemotherapeutic studies, mice received subcutaneous implantation were given standard laboratory diets. […] The time points were on the first day of the third, fifth and seventh weeks, with a total of 3 cycles of treatment, and each cycle lasted for 2 weeks. After the course of treatment, mouse […] were collected for tumor measurement and histological analysis. […] The chemotherapy experiment ended at the end of the 8th week, and the mice were dissected immediately after sacrifice, and the xenograft tumors were collected and used for pathological system analysis. To closely mimic clinical conditions involving chemotherapeutic drugs, the inventors designed a preclinical regimen incorporating a genotoxic drug (MIT) and/or the PDK4 inhibitor (PDK4-IN) (FIG. 63).

PC3 = assay: MIT-based viability assay of PC3; format: cell-based, human; conditions: PC3, range of concentrations of MIT
Description: FIG. 61. Dose-response curves (non-linear regression/curve fit) plotted from MIT-based viability assays of PC3 exposed to the CM of PSC27-PDK4 cells and treated by a range of concentrations of MIT.
as §1

[3] = system: tumor tissues of mice (PC3/PSC27 xenografts); assay: In vivo cellular senescence and SASP expression in xenograft tumors (LCM transcripts, SA-β-Gal staining); set-up: species or system SCID mice; conditions: histological staining, FIG. 68
Excerpt: (§2) FIG. 66. Transcript assessment of several canonical SASP factors expressed in stromal cells isolated from tumors in SCID mice. LCM isolation, total RNA preparation and expression assays on tissues from animals with simultaneously implanted stromal cells and cancer cells. Note that the group measured as of the lowest value was used as normalization baseline per factor.
as §2, with “67.” for “66.”, “individual” for “several”, “factors (AREG), aging markers (p16/p21) and PDK4” for “factors”
FIG. 68. Representative IHC images of SA-β-Gal staining chromatograms from tissues isolated from animals subjected to placebo or drug treatments. Scale bar, 100 μm. Right, Comparative statistical analysis of SA-β-Gal staining for tissues in mice mentioned above.
Senescence-associated β-galactosidase (SA-β-Gal) staining was performed following a previously reported procedure (Debacq-Chainiaux et al., 2009). Briefly, cells in culture dishes were washed with PBS and fixed at room temperature. Cells were fixed in 2% formaldehyde and 0.2% glutaraldehyde for 3 minutes. SA-β-Gal was used for staining with freshly prepared staining solution overnight at 37° C. Images were taken on the next day and the percentage of positive cells per unit area was calculated.
For pre-clinical chemotherapeutic studies, mice received subcutaneous implantation were given standard laboratory diets. […] The time points were on the first day of the third, fifth and seventh weeks, with a total of 3 cycles of treatment, and each cycle lasted for 2 weeks. After the course of treatment, mouse […] were collected for tumor measurement and histological analysis. […]

[4] = system: MDA-MB-231 breast cancer cells xenografted together with HBF1203 breast stromal cells; assay: MDA-MB-231/HBF1203 xenograft, tumor end volume after chemotherapy and/or PDK4-IN; format: in vivo, SCID mice; conditions: DTX 1.0 mg/kg with PDK4-IN; FIG. 73
Description: All experimental mouse experiments were carried out in strict accordance with the relevant regulations of the Institutional Animal Care and Use Committee (IACUC), Shanghai Institutes for Biological Sciences, Chinese Academy of Sciences. Immuno-deficient mice ICR SCID mice (body weight about 25 g) aged about 6 weeks were used for animal experiments related to the present disclosure. Stromal cells PSC27 and epithelial cells were mixed at a ratio of 1:4, and each graft contained 1.25×10^6 cells for tissue remodeling. The xenograft tumors were implanted into mice by subcutaneous transplantation, and the animals were euthanized 8 weeks after the end of the transplantation surgery. Tumor volume was calculated according to the following formula: V=(π/6)×(([…])/2)^3 (V, volume; 1, length; w, width).
For pre-clinical chemotherapeutic studies, mice received subcutaneous implantation were given standard laboratory diets. […] The time points were on the first day of the third, fifth and seventh weeks, with a total of 3 cycles of treatment, and each cycle lasted for 2 weeks. After the course of treatment, mouse […] were collected for tumor measurement and histological analysis. […] In order to cause systemic expression of SASP factors induced by chemotherapy, MIT was administered to mice through intravenous infusion according to the above steps and sequence, but the dose was reduced to 0.1 mg/kg body weight/each time (the cumulative dose of MIT received in the whole course of treatment was 0.3 mg/kg body weight) to reduce drug-related toxicity. The chemotherapy experiment ended at the end of the 8th week, and the mice were dissected immediately after sacrifice, and the xenograft tumors were collected and used for pathological system analysis.
To assess the in vivo effects of chemotherapeutic drugs and/or PDK4-IN treatment in different tumor types, the inventors subsequently generated xenografts composed of breast cancer cell line MDA-MB-231 and breast stromal cell line HBF1203 to replicate the preclinical intervention observed in prostate cancer xenografts.

HTR2B-conferred gain of proliferation, migration, invasion and resistance to MIT (HTR2B): generally lost
Structure (SMILES): COc1ccc(CC2NCCc3c2[nH]c2ccc(C)cc32)c(Cl)c1OC.Cl (stereo not shown) [LY 266097]

Structure (SMILES): O=C1c2c(O)ccc(O)c2C(=O)c2c(NCCNCCO)ccc(NCCNCCO)c21 [MIT, mitoxantrone]
caspase 3 cleavage (IHC) ([1]; MIT administration alone): increased caspase 3 cleavage
DNA damage and apoptosis in cancer cells ([1]; tumors dissected 7 days after initiation of treatment, single agent): caused substantial DNA damage and apoptosis
tumor shrinkage (tumor volume reduction) [2]: 57.5%
survival curve of cancer cells under genotoxic stress (PC3): declined trend
SA-β-gal positivity in tumor tissues [3]: elevated SA-β-gal positivity

Structure (SMILES): CC(=O)O[C@@]12CO[C@@H]1C[C@H](O)[C@@]1(C)C(=O)[C@H](O)C3=C(C)[C@@H](OC(=O)[C@H](O)[C@@H](NC(=O)OC(C)(C)C)c4ccccc4)C[C@@](O)([C@@H](OC(=O)c4ccccc4)[C@H]21)C3(C)C [docetaxel (DTX), docetaxel]
tumor regression by combination with PDK4-IN (non-genotoxic drug) [4]: unable to replicate the effects
